Results on 5 compounds are retold here after ChEMBL document CHEMBL4177630, “Discovery and evaluation of Cav3.2-selective T-type calcium channel blockers” (Bioorg Med Chem Lett, 2017).

By solubility is commonly meant the dissolved amount per volume that the medium holds. A low value points to a poorly soluble substance.

The nature of data set [1]: Aqueous solubility of the compound at pH 7. The class given is physicochemical.
Data set [2] is described as follows: Intrinsic clearance in rat liver microsomes. The conditions noted are these: read-out: CLH. The class given is ADME, microsome. Background: Liver microsomes are vesicles of endoplasmic reticulum, rich in cytochrome P450 enzymes.
The nature of data set [3]: Plasma concentration in Wistar rat at 100 mg/kg, po measured after 1 hr. It is filed as ADME, organism-based.
Data set [4] can be described thus: Fraction unbound in Wistar rat plasma at 100 mg/kg, po measured after 1 hr. It is filed as ADME, organism-based. The following applies: in vivo.
Data set [5] in a line: Drug level in Wistar rat brain at 100 mg/kg, po measured after 1 hr. It is filed as ADME, organism-based. The following applies: read-out: Drug uptake.
Data set [6] is described as follows: Drug level in Wistar rat CSF at 100 mg/kg, po measured after 1 hr. The following applies: read-out: Drug uptake. It is filed as ADME, organism-based, Cerebrospinal fluid.
Data set [7] is described as follows: Plasma concentration in Wistar rat at 10 mg/kg, po measured after 1 hr. The class given is ADME, organism-based.
The nature of data set [8]: Fraction unbound in Wistar rat plasma at 10 mg/kg, po measured after 1 hr. It is filed as ADME, organism-based. The conditions noted are these: in vivo.
Data set [9] is described as follows: Drug level in Wistar rat brain at 10 mg/kg, po measured after 1 hr. It is filed as ADME, organism-based. The conditions noted are these: read-out: Drug uptake.
Data set [10] is described as follows: Drug level in Wistar rat CSF at 10 mg/kg, po measured after 1 hr. The class given is ADME, organism-based, Cerebrospinal fluid. The conditions noted are these: read-out: Drug uptake.

Each structure is given as a SMILES string. Values after ≈ are worked out from the molar mass of the structure shown. Where only a bound is given, the exact number is not on record here.

As to `CC(C)OCc1ccccc1CNC(=O)c1c2c(c(Cl)n1C)CC(C)(C)CC2`, the solubility in [1] is less than 1 µg/mL. Besides, the microsomal CLint in [2] is greater than 1250 µL/min/mg. Further, the concentration at 1 h in [3] is 397 nM; in data set [5], 436 nM; in [6], less than 0.7 nM. The “Cp(f)” value in [4] is listed as less than 0.4 nM.

`Cn1c(Cl)c2c(c1C(=O)NCc1ccncc1OCC(F)(F)F)CCC(C)(C)C2` yielded a solubility in data set [1] of 1 µg/mL (≈ 2.33 µM). Besides, in data set [2], the microsomal CLint turned out to be 645 µL/min/mg. In addition, the concentration at 1 h was 5210 nM in data set [3], 12100 nM in data set [5] and 23 nM in data set [6]. For the same compound, the “Cp(f)” value in data set [4] was 5.2 nM.

`Cn1c(Cl)c2c(c1C(=O)NCc1ncccc1N1CC[C@H](F)C1)CCC(C)(C)C2` showed a solubility in data set [1] of less than 1 µg/mL.

Take `Cn1c(Cl)c2c(c1C(=O)NCc1cccnc1OCC(F)(F)F)CCC(C)(C)C2`: the solubility in [1] is less than 1 µg/mL. In [2], the microsomal CLint turned out to be 420 µL/min/mg. For the same compound, the concentration at 1 h is 353 nM in data set [7], 4720 nM in data set [9] and 6 nM in data set [10]. In data set [8], the “Cp(f)” value is less than 0.35 nM.

For `Cc1onc(CNC(=O)c2c3c(c(Cl)n2C)CC(C)(C)CC3)c1Cn1cccn1`, in [1], the solubility worked out at 7 µg/mL (≈ 16.8 µM). In data set [2], the microsomal CLint was greater than 1250 µL/min/mg. For the same compound, the concentration at 1 h came to 530 nM in data set [3], 1020 nM in data set [5] and 17 nM in data set [6]. Besides, the “Cp(f)” value in [4] stood at 1.6 nM.
